Laboratory results published in ChEMBL document CHEMBL5316350, “Novel Pyrido[2',1':2,3]imidazo[4,5-c]quinoline Derivative Selectively Poisons Leishmania donovani Bisubunit Topoisomerase 1 to Inhibit the Antimony-Resistant Leishmania Infection in Vivo” (J Med Chem, 2023).
Activity calls are given as the source filed them. No cut-off for these calls is given here.

Assays:
DNA topoisomerase I [1] = target: T1, DNA topoisomerase I (Leishmania donovani (strain BPK282A1), UniProt E9BRC0); assay: Inhibition of Leishmania donovani Top1 assessed as relaxation of supercoiled pBluescript SK(+) DNA measured by agarose gel electrophoresis analysis
T1 sequence (E9BRC0 whole entry): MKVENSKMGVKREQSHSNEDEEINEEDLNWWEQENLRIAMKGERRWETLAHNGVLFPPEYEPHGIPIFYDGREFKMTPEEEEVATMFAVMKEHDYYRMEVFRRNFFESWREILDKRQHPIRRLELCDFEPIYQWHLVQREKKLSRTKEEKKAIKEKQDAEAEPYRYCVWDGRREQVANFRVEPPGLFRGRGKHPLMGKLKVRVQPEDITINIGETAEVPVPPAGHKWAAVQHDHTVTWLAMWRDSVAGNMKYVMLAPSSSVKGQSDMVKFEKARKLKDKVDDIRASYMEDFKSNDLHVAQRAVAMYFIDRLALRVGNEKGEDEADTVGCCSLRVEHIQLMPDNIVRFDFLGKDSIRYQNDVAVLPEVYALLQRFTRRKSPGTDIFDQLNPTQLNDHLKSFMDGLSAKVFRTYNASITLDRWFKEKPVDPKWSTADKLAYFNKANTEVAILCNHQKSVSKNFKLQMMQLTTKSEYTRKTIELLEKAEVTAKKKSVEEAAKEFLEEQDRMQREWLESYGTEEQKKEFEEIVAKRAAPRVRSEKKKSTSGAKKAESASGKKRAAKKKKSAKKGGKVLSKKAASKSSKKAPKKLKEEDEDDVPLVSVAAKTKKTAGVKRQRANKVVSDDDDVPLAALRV

Leishmania donovani [2] = assay: Antileishmanial activity against Leishmania donovani Ag83 amastigotes infected in BALB/c mouse macrophage assessed as cell viability measured after 48 hrs infection by propidium iodide staining analysis relative to control; assay type: functional, organism-based; conditions: Ag83, 48 h
Leishmania donovani [3] = assay: Antileishmanial activity in Leishmania donovani Ag83 promastigotes assessed as reversible of Top1cc-induced DNA breakdown by disappearance of measuring TUNEL positive cells treated for 6 to 12 hrs followed by compound removal measured after 6 to 12 hrs by confocal microscopic analysis; assay type: functional, organism-based; conditions: time 6-12 hrs
Leishmania donovani [4] = assay: Stabilization of Leishmania donovani promastigotes Top1-DNA complex assessed as formation of SDS-KCl precipitable complex incubated for 110 mins by anti-BrdU staining based spectrophotometric analysis
Leishmania donovani [5] = assay: Antileishmanial activity against antimony resistant Leishmania donovani BHU575 promastigotes assessed as cell viability by MTT assay; assay type: functional, organism-based
MCF7 = assay: Induction of cell cycle arrest in human MCF7 cells assessed as accumulation at G1 sub population measured at 5 uM upto 24 hrs by PI staining based flow cytometry; assay type: functional
[6] = Cytotoxicity against BALB/c mouse macrophage assessed as cell viability measured after 48 hrs infection by propidium iodide staining analysis relative to control; assay type: toxicity, cell-based; conditions: mouse macrophages
[7] = target: T2, DNA topoisomerase I (Leishmania donovani (strain BPK282A1)) (UniProt E9BRC0); assay: Binding affinity to Leishmania donovani recombinant topoisomerase I assessed as stabilization of cleavage complex at 25 to 50 uM measured after 30 mins; conditions: dose 25-50 µM
T2 sequence (whole entry): T1 sequence (E9BRC0 whole entry)

Leishmania donovani [8] = assay: Antileishmanial activity against antimony resistant Leishmania donovani BHU575 amastigotes infected in BALB/c mouse macrophage assessed as cell viability measured after 48 hrs infection by propidium iodide staining analysis relative to control; assay type: functional, organism-based; conditions: BHU575, 48 h
[9] = target: T2, DNA topoisomerase I (Leishmania donovani (strain BPK282A1)); assay: Binding affinity to topoisomerase I in Leishmania donovani Ag83 whole cell lysate assessed as stabilization of cleavage complex at 50 to 100 uM measured after 30 mins; assay type: subcellular; conditions: dose 50-100 µM
Leishmania donovani [10] = assay: Antileishmanial activity against Leishmania donovani Ag83 promastigotes assessed as cell viability by MTT assay; assay type: functional, organism-based
Leishmania donovani [11] = assay: Antileishmanial activity in Leishmania donovani Ag83 promastigotes assessed as Top1cc-induced DNA breakdown by measuring TUNEL positive cells by confocal microscopic analysis; assay type: functional, organism-based; conditions: time 6-12 hrs, TDE = time-dependent effect
[12] = target: T2, DNA topoisomerase I (Leishmania donovani (strain BPK282A1)); assay: Binding affinity to antimony resistant Leishmania donovani BHU575 promastigotes recombinant topoisomerase I assessed as stabilization of cleavage complex at 50 to 100 uM measured after 30 mins; conditions: dose 50-100 µM
DNA topoisomerase I [13] = target: T1, DNA topoisomerase I; assay: Inhibition of recombinant Top1 in Leishmania donovani Ag83 whole cell extract assessed as relaxation of supercoiled pBluescript SK(+) DNA measured by agarose gel electrophoresis analysis
[14] = target: T2, DNA topoisomerase I (Leishmania donovani (strain BPK282A1)); assay: Inhibition of Leishmania donovani topoisomerase I assessed as DNA intercalation using pBluscript (SK+) DNA as substrate at 50 to 200 uM incubated for 15 mins ethidium bromide staining based UV analysis; conditions: dose 50-200 µM
[15] = target: T2, DNA topoisomerase I (Leishmania donovani (strain BPK282A1)); assay: Binding affinity to Leishmania donovani topoisomerase I assessed as DNA intercalation by measuring dislodging of bound fluorophore at 50 uM by EtBr displacement assay

## Cc1ccc(-c2nc3ccccc3c3nc4cc(C)ccn4c23)cc1
DNA topoisomerase I [1]
  IC50: > 10 µM

## Cc1cccn2c1nc1c3ccccc3nc(-c3ccccn3)c12
DNA topoisomerase I [1]
  IC50: > 10 µM

## CC[C@@]1(O)C(=O)OCc2c1cc1n(c2=O)Cc2cc3ccccc3nc2-1 [CAMPTOTHECIN]
Leishmania donovani [2]
  EC50: 7.84 µM
Leishmania donovani [3]
  Activity: inactive
Leishmania donovani [4]
  Activity: Active
Leishmania donovani [5]
  EC50: 6.58 µM
MCF7
  Activity: Active
[6]
  EC50 at 48 h: 18.3 µM
[7]
  Activity: Active
Leishmania donovani [8]
  EC50: 12.8 µM
[9]
  Activity: Active
Leishmania donovani [10]
  EC50: 3.79 µM
Leishmania donovani [11]
  Activity: Tde
[12]
  Activity: Active

## Cc1cccn2c1nc1c3ccccc3nc(-c3cccs3)c12
DNA topoisomerase I [1]
  IC50: 7.25 µM
DNA topoisomerase I [13]
  IC50: 14.9 µM

## c1ccc2c(c1)ncc1c2nc2ccccn21
DNA topoisomerase I [1]
  IC50: > 10 µM

## c1ccc(-c2nc3ccccc3c3nc4ccccn4c23)cc1
DNA topoisomerase I [1]
  IC50: > 10 µM

## Brc1ccc2nc3c4ccccc4ncc3n2c1
DNA topoisomerase I [1]
  IC50: > 10 µM

## COc1ccc(-c2nc3ccccc3c3nc4ccccn4c23)cc1OC
DNA topoisomerase I [1]
  IC50: 5.25 µM
DNA topoisomerase I [13]
  IC50: 12 µM

## Cc1cccn2c1nc1c3ccccc3nc(-c3ccc(Cl)cc3)c12
DNA topoisomerase I [1]
  IC50: 5.5 µM
DNA topoisomerase I [13]
  IC50: 12.5 µM

## Cc1ccn2c(c1)nc1c3ccccc3ncc12
DNA topoisomerase I [1]
  IC50: > 10 µM

## Cc1ccc(-c2nc3ccccc3c3nc4c(C)cccn4c23)cc1
DNA topoisomerase I [1]
  IC50: 7.25 µM
DNA topoisomerase I [13]
  IC50: 15.1 µM

## O=[N+]([O-])c1cccc(-c2nc3ccccc3c3nc4ccccn4c23)c1
DNA topoisomerase I [1]
  IC50: > 10 µM

## COc1cc([C@@H]2c3cc4c(cc3[C@@H](O[C@@H]3O[C@@H]5CO[C@@H](C)O[C@H]5[C@H](O)[C@H]3O)[C@H]3COC(=O)[C@H]23)OCO4)cc(OC)c1O
[14]
  inhibition: inactive

## Cc1ccn2c(c1)nc1c3ccccc3nc(-c3ccccc3)c12
DNA topoisomerase I [1]
  IC50: > 10 µM

## O=[N+]([O-])c1ccccc1-c1nc2ccccc2c2nc3ccccn3c12
DNA topoisomerase I [1]
  IC50: > 10 µM

## Clc1ccc(-c2nc3ccccc3c3nc4ccccn4c23)cc1
DNA topoisomerase I [1]
  IC50: 8.52 µM

## COc1cc(NS(C)(=O)=O)ccc1Nc1c2ccccc2nc2ccccc12
[14]
  inhibition: Active
[15]
  Activity: Active

## O=[N+]([O-])c1ccc(-c2nc3ccccc3c3nc4ccccn4c23)cc1
DNA topoisomerase I [1]
  IC50: > 10 µM

## COc1ccc(-c2nc3ccccc3c3nc4cc(C)ccn4c23)cc1
DNA topoisomerase I [1]
  IC50: > 10 µM

## Clc1ccc2nc3c4ccccc4ncc3n2c1
DNA topoisomerase I [1]
  IC50: > 10 µM

## Cc1cccn2c1nc1c3ccccc3nc(-c3ccccc3)c12
DNA topoisomerase I [1]
  IC50: 6.75 µM
DNA topoisomerase I [13]
  IC50: 12.8 µM

## Cc1ccc(-c2nc3ccccc3c3nc4ccccn4c23)cc1
DNA topoisomerase I [1]
  IC50: > 10 µM

## Cc1ccc2nc3c4ccccc4ncc3n2c1
DNA topoisomerase I [1]
  IC50: > 10 µM
